Four molecules from ChEMBL document CHEMBL1128619, “Chemoenzymatic synthesis of enantiomers of a new retinoid to investigate the role of chirality in the biological response” (Bioorg Med Chem Lett, 1995) can be followed below.

Data set [1] relates to F9. Description: Cellular activity on the differentiation was quantified by measure of plasminogen activator in mouse embryonal teratocarcinoma F9 cells. The class given is functional, cell-based.
Data set [2] can be described thus: Half life in rat plasma was determined. The class given is ADME, organism-based.
The subject of data set [3] is F9. Description: Cellular activity on the differentiation was quantified by measure of plasminogen activator in mouse embryonal teratocarcinoma F9 cells; NA means not active. Type of data set: functional, cell-based.

Broadly, the AC50 is the concentration at which the activity in the assay is half-maximal. Low values mean activity at low concentration, high ones activity only at high concentration. By half-life is commonly meant how long it takes for the measured level to halve. In the data set with F9 [1], `CC1(C)CCC(C)(C)c2cc(COC(=O)c3ccc(C(=O)O)cc3)ccc21` returned an AC50 of 140 nM. The half-life in data set [2] was 2.3 h.

With `CC(OC(=O)c1ccc(C(=O)O)cc1)c1ccc2c(c1)C(C)(C)CCC2(C)C` (stereo not drawn), in the data set with F9 [1], half-maximal activity (AC50) was put at 350 nM. Also, the half-life in data set [2] was more than 6 h.

On to `C[C@H](OC(=O)c1ccc(C(=O)O)cc1)c1ccc2c(c1)C(C)(C)CCC2(C)C`, for which the AC50 result in the data set with F9 [3] is listed as “Not Active”. The molecule also had a half-life in data set [2] of more than 24 h.

In the data set with F9 [1], `C[C@@H](OC(=O)c1ccc(C(=O)O)cc1)c1ccc2c(c1)C(C)(C)CCC2(C)C` registered an AC50 of 300 nM. Further, the half-life in data set [2] is 6 h.
